Results reported in ChEMBL document CHEMBL1156487, “Proximity-accelerated chemical coupling reaction in the benzodiazepine-binding site of gamma-aminobutyric acid type A receptors: superposition of different allosteric modulators” (J Biol Chem, 2007).
Activity calls are given as the source filed them. The calls are words filed in the database; no cut-off is given here.

Key:
Oocyte [1] = test: (§1) Activity at rat […] GABAA alpha-1V202Cbeta-2-gamma-2 mutant receptor expressed in xenopus oocytes assessed as GABA-elicited response by two electrode voltage clamp method relative to control; type: cell-based
[2] = (§2) Activity at rat […] GABAA alpha-1V211Cbeta-2-gamma-2 mutant receptor expressed in xenopus oocytes assessed as GABA-elicited response by two electrode voltage clamp method relative to control; type: cell-based; settings: Oocyte
Oocyte [3] = test: as §2; type: cell-based
[4] = (§3) Activity at rat […] GABAA alpha-1H101Cbeta-2-gamma-2 mutant receptor expressed in xenopus oocytes assessed as GABA-elicited response by two electrode voltage clamp method relative to control; type: cell-based; settings: Oocyte
Oocyte [5] = test: as §3; type: cell-based
[6] = (§4) Activity at rat […] GABAA alpha-1G157Cbeta-2-gamma-2 mutant receptor expressed in xenopus oocytes assessed as GABA-elicited response by two electrode voltage clamp method relative to control; type: cell-based; settings: Oocyte
Oocyte [7] = test: as §4; type: cell-based
Oocyte [8] = test: Activity at rat GABAA alpha-1H101Cbeta-2-gamma-2 mutant receptor expressed in xenopus oocytes assessed as change in GABA-induced current amplitude at 1 uM after 1 min exposure to GABA by two electrode voltage clamp method; type: cell-based
[9] = as §1; type: cell-based; settings: Oocyte
Oocyte [10] = test: Activity at rat GABAA alpha-1H101Cbeta-2-gamma-2 mutant receptor expressed in xenopus oocytes assessed as change in GABA-induced current amplitude at 500 nM by two electrode voltage clamp method in presence of L-cysteine; type: cell-based
Oocyte [11] = test: Activity at rat GABAA alpha-1H101Cbeta-2-gamma-2 mutant receptor expressed in xenopus oocytes assessed as change in GABA-induced current amplitude at 10 nM to 1 uM after 1 min exposure to GABA by two electrode voltage clamp method; type: cell-based
Oocyte [12] = test: Activity at rat GABAA alpha-1H101Cbeta-2-gamma-2 mutant receptor expressed in xenopus oocytes assessed as change in GABA-induced current amplitude first phase stimulation at 3 uM by two electrode voltage clamp method; type: cell-based
Oocyte [13] = test: Activity at rat GABAA alpha-1H101Cbeta-2-gamma-2 mutant receptor expressed in xenopus oocytes assessed as change in GABA-induced current amplitude second phase stimulation at 3 uM by two electrode voltage clamp method; type: cell-based
Oocyte [14] = test: Activity at rat GABAA alpha-1G157Cbeta-2-gamma-2 mutant receptor expressed in xenopus oocytes assessed as change in GABA-induced current amplitude at 1 uM after 1 min exposure to GABA by two electrode voltage clamp method; type: cell-based
Oocyte [15] = test: Activity at rat GABAA alpha-1V202Cbeta-2-gamma-2 mutant receptor expressed in xenopus oocytes assessed as change in GABA-induced current amplitude at 1 uM after 1 min exposure to GABA by two electrode voltage clamp method; type: cell-based
Oocyte [16] = test: Activity at rat GABAA alpha-1V211Cbeta-2-gamma-2 mutant receptor expressed in xenopus oocytes assessed as change in GABA-induced current amplitude at 1 uM after 1 min exposure to GABA by two electrode voltage clamp method; type: cell-based
HEK293 [17] = test: Displacement of [3H]Ro15-1788 from rat GABAA alpha-1H101Cbeta-2-gamma-2 mutant receptor expressed in HEK293 cells assessed as residual binding after pretreatment of L-cysteine at 30 nM after 1 hr by liquid scintillation counting; type: cell-based
HEK293 [18] = test: Displacement of [3H]Ro15-1788 from rat GABAA alpha-1H101Cbeta-2-gamma-2 mutant receptor expressed in HEK293 cells assessed as residual binding without pretreatment of L-cysteine at 30 nM after 1 hr by liquid scintillation counting; type: cell-based
HEK293 [19] = test: Displacement of [3H]Ro15-1788 from rat GABAA alpha-1H101Cbeta-2-gamma-2 mutant receptor expressed in HEK293 cells assessed as residual binding at 10 nM after 1 hr by liquid scintillation counting; type: cell-based
HEK293 [20] = test: Displacement of [3H]Ro15-1788 from rat GABAA alpha-1H101Cbeta-2-gamma-2 mutant receptor expressed in HEK293 cells assessed as residual binding at 10 nM after 1 hr by liquid scintillation counting in presence of Ro15-1788; type: cell-based
HEK293 [21] = test: Displacement of [3H]Ro15-1788 from rat GABAA alpha-1H101Cbeta-2-gamma-2 mutant receptor expressed in HEK293 cells assessed as residual binding at 10 nM after 1 hr by liquid scintillation counting in presence of flunitrazepam; type: cell-based
[22] = Displacement of [3H]Ro15-1788 from rat GABAA alpha-1H101Cbeta-2-gamma-2 mutant receptor expressed in HEK293 cells after 1 hr assessed as residual binding by liquid scintillation counting; type: cell-based
[23] = Displacement of [3H]Ro15-1788 from rat GABAA alpha-1-beta-2-gamma-2S receptor expressed in HEK293 cells by liquid scintillation counting; type: cell-based
HEK293 [24] = test: Displacement of [3H]Ro15-1788 from rat GABAA alpha-1H101Cbeta-2-gamma-2 mutant receptor expressed in HEK293 cells assessed as residual binding at 100 nM after 1 hr by liquid scintillation counting; type: cell-based
HEK293 [25] = test: Displacement of [3H]Ro15-1788 from rat GABAA alpha-1G157Cbeta-2-gamma-2 mutant receptor expressed in HEK293 cells assessed as residual binding at 100 nM after 1 hr by liquid scintillation counting; type: cell-based
HEK293 [26] = test: Displacement of [3H]Ro15-1788 from rat GABAA alpha-1V202Cbeta-2-gamma-2 mutant receptor expressed in HEK293 cells assessed as residual binding at 100 nM after 1 hr by liquid scintillation counting; type: cell-based
HEK293 [27] = test: Displacement of [3H]Ro15-1788 from rat GABAA alpha-1V211Cbeta-2-gamma-2 mutant receptor expressed in HEK293 cells assessed as residual binding at 100 nM after 1 hr by liquid scintillation counting; type: cell-based
[28] = biological target: T1, Gamma-aminobutyric acid receptor subunit alpha-1 (Homo sapiens) (UniProt P14867); settings: Rattus norvegicus; Oocyte; 1 uM
T1 sequence (whole entry): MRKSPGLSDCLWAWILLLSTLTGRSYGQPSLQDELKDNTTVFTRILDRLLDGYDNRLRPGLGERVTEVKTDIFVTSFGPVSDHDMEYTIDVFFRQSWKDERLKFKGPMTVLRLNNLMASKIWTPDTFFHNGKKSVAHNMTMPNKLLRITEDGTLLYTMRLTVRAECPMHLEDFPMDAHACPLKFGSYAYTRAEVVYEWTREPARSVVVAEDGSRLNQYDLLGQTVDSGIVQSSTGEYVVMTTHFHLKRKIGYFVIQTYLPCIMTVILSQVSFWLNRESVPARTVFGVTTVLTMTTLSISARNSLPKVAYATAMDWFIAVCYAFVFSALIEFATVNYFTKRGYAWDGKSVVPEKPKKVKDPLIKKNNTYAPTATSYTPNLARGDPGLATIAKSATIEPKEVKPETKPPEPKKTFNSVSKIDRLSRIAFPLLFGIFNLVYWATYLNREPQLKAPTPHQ
Description: Activity at rat wild type GABAA alpha-1-beta-2-gamma-2 receptor expressed in xenopus oocytes assessed as change in GABA-induced current amplitude at 1 uM after 1 min exposure to GABA by two electrode voltage clamp method

[29] = biological target: T1, Gamma-aminobutyric acid receptor subunit alpha-1 (Homo sapiens); settings: Rattus norvegicus; Oocyte; 1 uM; remark: listed apart in the source
Description: Activity at rat wild type GABAA alpha-1-beta-2-gamma-2 receptor expressed in xenopus oocytes assessed as change in GABA-induced current amplitude at 1 uM after 5 min exposure to GABA by two electrode voltage clamp method

[30] = biological target: T1, Gamma-aminobutyric acid receptor subunit alpha-1 (Homo sapiens); settings: Rattus norvegicus; Oocyte; 10 uM
Description: Activity at rat wild type GABAA alpha-1-beta-2-gamma-2 receptor expressed in xenopus oocytes assessed as change in GABA-induced current amplitude at 10 uM after 5 min by two electrode voltage clamp method

Oocyte [31] = test: Activity at rat GABAA alpha-1H101Cbeta-2-gamma-2 mutant receptor expressed in xenopus oocytes assessed as change in GABA-induced current amplitude at 10 uM after 1 min exposure to GABA by two electrode voltage clamp method; type: cell-based

CCOC(=O)c1ncn2c1CN(C)C(=O)c1cc(N=[N+]=[N-])ccc1-2 [Ro-154513]
max activation (Oocyte [1]): 9%
EC50 [2]: 44 nM
max activation (Oocyte [3]): -23%
EC50 [4]: 17 nM
max activation (Oocyte [5]): 40%
EC50 [6]: 32 nM
max activation (Oocyte [7]): 36%

CCOC(=O)c1ncn2c1CN(C)C(=O)c1cc(F)ccc1-2 [FLUMAZENIL]
max activation (Oocyte [1]): 1%
max activation (Oocyte [3]): 5%
inhibition (Oocyte [8]): 22%
EC50 [4]: 30 nM
max activation (Oocyte [5]): 22%
max activation (Oocyte [7]): -2%

CCOC(=O)c1ncn2c1CN(C)C(=O)c1cc(N=C=S)ccc1-2
EC50 [9]: 668 nM
max activation (Oocyte [1]): 16%
EC50 [2]: > 2000 nM
max activation (Oocyte [3]): > 140%
Activity (Oocyte [10]): Active
Activity (Oocyte [11]): 362 nM
inhibition (Oocyte [12]): 53%
inhibition (Oocyte [13]): 47%
inhibition (Oocyte [14]): 88%
inhibition (Oocyte [15]): 71%
inhibition (Oocyte [16]): 5%
Activity (HEK293 [17]): 82%
Activity (HEK293 [18]): 18%
Activity (HEK293 [19]): 29%
Activity (HEK293 [20]): 73%
Activity (HEK293 [21]): 64%
Kd [22]: 0.9 nM
EC50 [4]: 17 nM
max activation (Oocyte [5]): 90%
EC50 [6]: 34 nM
max activation (Oocyte [7]): 30%
Ki [23]: 10 nM
Activity (HEK293 [24]): 85%
Activity (HEK293 [25]): 50%
Activity (HEK293 [26]): 50%
Activity (HEK293 [27]): 50%
inhibition [28]: 3%
inhibition [29]: 4%
inhibition [30]: 8%

Cc1ccc(-c2nc3ccc(C)cn3c2CC(=O)N(C)C)cc1 [ZOLPIDEM]
EC50 [9]: 2750 nM
max activation (Oocyte [1]): 369%
EC50 [2]: 341 nM
max activation (Oocyte [3]): 127%
inhibition (Oocyte [31]): 96%
EC50 [4]: 1180 nM
max activation (Oocyte [5]): 162%
EC50 [6]: 2630 nM
max activation (Oocyte [7]): 427%
